{
  "source": "patent US7173151B2",
  "about": "“Cycloalkyl-substituted alkanoic acid derivatives, processes for their preparation and their use as pharmaceuticals” (Sanofi-AventisDeutschand GmbH, priority 2003, dated 2007)",
  "data": [
    {"molecular_target": "T1, GR-GAL4-humanPPARalpha-LBD (Homo sapiens, UniProt Q07869)", "T1 construct": "amino acids S167–Y468; expressed in transfected cells; host or cells: HEK cells, stably transfected (pcDNA3, CMV promoter)", "T1 sequence (Q07869 167-468)": "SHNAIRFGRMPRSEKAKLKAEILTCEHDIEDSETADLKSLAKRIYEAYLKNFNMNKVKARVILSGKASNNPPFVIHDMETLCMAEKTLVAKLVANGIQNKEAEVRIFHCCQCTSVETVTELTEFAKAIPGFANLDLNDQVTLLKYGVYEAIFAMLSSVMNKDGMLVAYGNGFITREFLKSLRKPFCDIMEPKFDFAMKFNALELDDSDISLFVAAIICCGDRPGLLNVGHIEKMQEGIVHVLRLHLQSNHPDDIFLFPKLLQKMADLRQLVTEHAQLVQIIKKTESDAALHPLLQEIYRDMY", "assay": "Cellular PPARalpha assay (luciferase reporter, stably transfected HEK cell line)", "format": "cell-based", "procedure": "Determination of EC50 Values of PPAR Agonists in the Cellular PPARalpha Assay\nThe potency of substances which bind to human PPARalpha and activate in an agonistic manner is analyzed using a stably transfected HEK cell line (HEK=human embryo kidney) which is referred to here as PPARalpha reporter cell line. It contains two genetic elements, a luciferase reporter element (pdeltaM-GAL4-Luc-Zeo) and a PPARalpha fusion protein (GR-GAL4-humanPPARalpha-LBD) which mediates expression of the luciferase reporter element depending on a PPARalpha ligand. The stably and constitutively expressed fusion protein GR-GAL4-humanPPARalpha-LBD binds in the cell nucleus of the PPARalpha reporter cell line via the GAL4 protein portion to the GAL4 DNA binding motifs 5′-upstream of the luciferase reporter element which is integrated in the genome of the cell line. There is only little expression of the luciferase reporter gene without addition of a PPARalpha ligand if fatty acid-depleted fetal calf serum (cs-FCS) is used in the assay. PPARalpha ligands bind and activate the PPARalpha fusion protein and thereby bring about expression of the luciferase reporter gene. The luciferase which is formed can be detected by means of chemiluminescence via an appropriate substrate.\nThe PPARalpha reporter cell line was prepared in 2 stages. Firstly, the luciferase reporter element was constructed and stably transfected into HEK cells. For this purpose, five binding sites of the yeast transcription factor GAL4 (each 5′-CGGAGTACTGTCCTCCGAG-3′) (SEQ ID No. 1) were cloned in 5′-upstream of a 68 bp-long minimal MMTV promoter (Genbank Accession #V01175). The minimal MMTV promoter section contains a CCAAT box and a TATA element in order to enable efficient transcription by RNA polymerase II. The cloning and sequencing of the GAL4-MMTV construct took place in analogy to the description of Sambrook J. et. al. (Molecular cloning, Cold Spring Harbor Laboratory Press, 1989). Then the complete Photinus pyralis gene (Genbank Accession #M15077) was cloned in 3′-downstream of the GAL4-MMTV element. After sequencing, the luceriferase reporter element consisting of five GAL4 binding sites, MMTV promoter and luciferase gene was recloned into a plasmid which confers zeocin resistance in order to obtain the plasmid pdeltaM-GAL4-Luc-Zeo. This vector was transfected into HEK cells in accordance with the statements in Ausubel, F. M. et al. (Current protocols in molecular biology, Vol. 1–3, John Wiley & Sons, Inc., 1995).\nIn a second step, the PPARalpha fusion protein (GR-GAL4-humanPPARalpha-LBD) was introduced into the stable cell clone described. For this purpose, initially the cDNA coding for the N-terminal 76 amino acids of the glucocorticoid receptor (Genbank Accession #P04150) was linked to the cDNA section coding for amino acids 1–147 of the yeast transcription factor GAL4 (Genbank Accession #P04386). The cDNA of the ligand-binding domain of the human PPARalpha receptor (amino acids S167–Y468; Genbank Accession #S74349) was cloned in at the 3′-end of this GR-GAL4 construct. The fusion construct prepared in this way (GR-GAL4-humanPPARalpha-LBD) was recloned into the plasmid pcDNA3 (from Invitrogen) in order to enable constitutive expression therein by the cytomegalovirus promoter. This plasmid was linearized with a restriction endonuclease and stably transfected into the previously described cell clone containing the luciferase reporter element. The finished PPARalpha reporter cell line which contains a luciferase reporter element and constitutively expresses the PPARalpha fusion protein (GR-GAL4-human PPARalpha-LBD) was isolated by selection with zeocin (0.5 mg/ml) and G418 (0.5 mg/ml).\nThe activity of PPARalpha agonists is determined in a 3-day assay which is described below: […]", "units": {"EC50": "nM"}, "values": [
      {"smiles": "CCC(CCC1CCCC(OCCN(Cc2ccc(C)cc2)C(=O)NC2CCCCC2)C1)C(=O)O", "note": "(racemic) [Example 1, 4-(cis-3-{2-[3-cyclohexyl-1-(4-methylbenzyl)ureido]ethoxy}cyclohexyl)-2-ethylbutyric acid]", "EC50": 1.1},
      {"smiles": "CCCCCCCN(CCOC1CCCC(CCC(C)(C)C(=O)O)C1)C(=O)NCCCC", "note": "(racemic) [Example 9, 4-{cis-3-[2-(3-butyl-1-heptylureido)ethoxy]cyclohexyl)-2,2-dimethylbutyric acid]", "EC50": 8.8},
      {"smiles": "CCCCCCCN(CCO[C@@H]1CCC[C@H](CCC(C)(C)C(=O)O)C1)C(=O)NC1CCCCC1", "note": "(racemic) [Example 11, 4-{cis-3-[2-(3-cyclohexyl-1-heptylureido)ethoxy]cyclohexyl}-2,2-dimethylbutyrate]", "EC50": 28},
      {"smiles": "CCCCCCCN(CCO[C@@H]1CCC[C@H](CCC(CC)C(=O)O)C1)C(=O)NCCCC", "note": "(relative stereo) [Example 2, 4-{cis-3-[2-(3-butyl-1-heptylureido)ethoxy]cyclohexyl}-2-ethylbutyric acid]", "EC50": 1},
      {"smiles": "CCCCCCCN(CCO[C@@H]1CCC[C@H](CCC(CC)C(=O)O)C1)C(=O)NC1CCCCC1", "note": "(relative stereo) [Example 3, 4-{cis-3-[2-(3-cyclohexyl-1-heptylureido)ethoxy]cyclohexyl}-2-ethylbutyric acid]", "EC50": 0.56},
      {"smiles": "CCCCCCCN(CCO[C@@H]1CCC[C@H](CCC(C(=O)O)C(C)C)C1)C(=O)NCCCC", "note": "(relative stereo) [Example 5, 2-(2-{cis-3-[2-(3-butyl-1-heptylureido)ethoxy]cyclohexyl}ethyl)-3-methylbutyric acid]", "EC50": 0.38},
      {"smiles": "CCCCNC(=O)N(CCO[C@@H]1CCC[C@H](CCC(C)(C)C(=O)O)C1)Cc1ccc(C)cc1", "note": "(relative stereo) [Example 10, 4-(cis-3-{2-[3-butyl-1-(4-methylbenzyl)ureido]ethoxy}cyclohexyl)-2,2-dimethylbutyric acid]", "EC50": 74}
    ]}
  ]
}
